According to the NIST ThermoML archive (doi:10.1016/j.jct.2017.02.024):

Experiment: mn = molality of the nth substance listed, in mol/kg
Conditions: 100 kPa, Liquid; for viscosity: Capillary tube (Ostwald / Ubbelohde) method; for mass density: Vibrating tube method

NCC(=O)O [2-aminoacetic acid] + O
Conditions | mass density, 293.15 K [kg/m3] | mass density, 303.15 K [kg/m3] | mass density, 313.15 K [kg/m3] | mass density, 323.15 K [kg/m3] | viscosity, 293.15 K [mPa·s] | viscosity, 303.15 K [mPa·s] | viscosity, 313.15 K [mPa·s] | viscosity, 323.15 K [mPa·s]
m1 = 0.1 | 1001.39 | 998.81 | – | 991.09 | 1.014 | 0.809 | 0.663 | 0.556
m1 = 0.2 | 1004.56 | 1001.91 | – | 994.12 | 1.027 | 0.82 | 0.673 | 0.565
m1 = 0.3 | 1007.67 | 1004.97 | 1001.42 | 997.11 | 1.041 | 0.832 | 0.683 | 0.574
m1 = 0.4 | 1010.73 | 1007.98 | 1004.4 | 1000.05 | 1.055 | 0.844 | 0.693 | 0.582
m1 = 0.5 | 1013.74 | 1010.94 | 1007.32 | 1002.96 | 1.07 | 0.856 | 0.704 | 0.591
m1 = 0.6 | 1016.72 | 1013.87 | 1010.23 | 1005.85 | 1.085 | 0.868 | 0.714 | 0.6
m1 = 0.7 | 1019.66 | 1016.75 | 1013.06 | 1008.69 | 1.101 | 0.881 | 0.724 | 0.61

OC[C@@H](O)[C@@H](O[C@H]1O[C@H](CO)[C@@H](O)[C@H](O)[C@H]1O)[C@H](O)[C@@H](O)CO [4-O-α-D-glucopyranosyl-D-glucitol] + O
Conditions | mass density, m1 = 0.2 [kg/m3] | mass density, m1 = 0.4 [kg/m3] | mass density, m1 = 0.6 [kg/m3] | mass density, m1 = 0.8 [kg/m3] | mass density, m1 = 1 [kg/m3] | viscosity, m1 = 0.2 [mPa·s] | viscosity, m1 = 0.4 [mPa·s] | viscosity, m1 = 0.6 [mPa·s] | viscosity, m1 = 0.8 [mPa·s] | viscosity, m1 = 1 [mPa·s]
293.15 K | 1022.97 | 1045.59 | 1066.2 | 1085.31 | 1102.86 | 1.202 | 1.457 | 1.761 | 2.142 | 2.61
303.15 K | 1020.13 | 1042.41 | 1062.88 | 1081.69 | 1099.07 | 0.95 | 1.134 | 1.353 | 1.626 | 1.954
313.15 K | 1016.42 | 1038.47 | 1058.71 | 1077.36 | 1094.66 | 0.77 | 0.909 | 1.073 | 1.277 | 1.511
323.15 K | 1012.07 | 1033.97 | 1054.01 | 1072.55 | 1089.71 | 0.641 | 0.747 | 0.874 | 1.027 | 1.204

C[C@H](N)C(=O)O [(S)-2-aminopropanoic acid] + O
Conditions | mass density, 293.15 K [kg/m3] | mass density, 303.15 K [kg/m3] | mass density, 313.15 K [kg/m3] | mass density, 323.15 K [kg/m3] | viscosity, 293.15 K [mPa·s] | viscosity, 303.15 K [mPa·s] | viscosity, 313.15 K [mPa·s] | viscosity, 323.15 K [mPa·s]
m1 = 0.1 | 1001.06 | 998.5 | 995.04 | 990.8 | 1.027 | 0.817 | 0.669 | 0.559
m1 = 0.2 | 1003.89 | 1001.29 | 997.81 | 993.55 | 1.053 | 0.837 | 0.684 | 0.571
m1 = 0.3 | 1006.66 | 1004.03 | 1000.5 | 996.24 | 1.079 | 0.857 | 0.7 | 0.584
m1 = 0.4 | – | – | – | – | 1.106 | 0.878 | 0.716 | 0.597
m1 = 0.401 | 1009.41 | 1006.73 | 1003.18 | 998.9 | – | – | – | –
m1 = 0.5 | 1012.07 | 1009.37 | 1005.79 | 1001.49 | 1.134 | 0.898 | 0.733 | 0.611
m1 = 0.6 | 1014.71 | 1011.97 | 1008.36 | 1004.08 | 1.163 | 0.921 | 0.751 | 0.624
m1 = 0.7 | 1017.29 | 1014.52 | 1010.9 | 1006.6 | 1.193 | 0.943 | 0.768 | 0.638

N=C(N)NCCC[C@H](N)C(=O)O [L-arginine] + O
Conditions | mass density, 293.15 K [kg/m3] | mass density, 303.15 K [kg/m3] | mass density, 313.15 K [kg/m3] | mass density, 323.15 K [kg/m3] | viscosity, 293.15 K [mPa·s] | viscosity, 303.15 K [mPa·s] | viscosity, 313.15 K [mPa·s] | viscosity, 323.15 K [mPa·s]
m1 = 0.1 | 1003.16 | 1000.56 | 997.08 | 992.8 | 1.054 | 0.837 | 0.684 | 0.572
m1 = 0.2 | 1007.98 | 1005.3 | 1001.76 | 997.43 | 1.109 | 0.879 | 0.716 | 0.598
m1 = 0.3 | 1012.67 | 1009.89 | 1006.3 | 1001.92 | 1.167 | 0.922 | 0.751 | 0.625
m1 = 0.4 | 1017.19 | 1014.33 | 1010.71 | 1006.3 | 1.229 | 0.969 | 0.786 | 0.653
m1 = 0.5 | 1021.57 | 1018.66 | 1014.97 | 1010.54 | 1.296 | 1.019 | 0.825 | 0.682
m1 = 0.6 | 1025.85 | 1022.85 | 1019.13 | 1014.68 | 1.366 | 1.069 | 0.863 | 0.713
m1 = 0.7 | 1030 | 1026.94 | 1023.18 | 1018.67 | 1.435 | 1.121 | 0.903 | 0.743

C[C@@H](O)[C@H](N)C(=O)O [L-threonine] + O
Conditions | mass density, 293.15 K [kg/m3] | mass density, 303.15 K [kg/m3] | mass density, 313.15 K [kg/m3] | mass density, 323.15 K [kg/m3] | viscosity, 293.15 K [mPa·s] | viscosity, 303.15 K [mPa·s] | viscosity, 313.15 K [mPa·s] | viscosity, 323.15 K [mPa·s]
m1 = 0.1 | 1002.4 | 999.82 | 996.36 | 992.09 | 1.035 | 0.823 | 0.673 | 0.563
m1 = 0.2 | 1006.54 | 1003.91 | 1000.4 | 996.09 | 1.07 | 0.85 | 0.694 | 0.579
m1 = 0.3 | 1010.59 | 1007.91 | 1004.35 | 1000.01 | 1.105 | 0.878 | 0.717 | 0.596
m1 = 0.4 | 1014.57 | 1011.83 | 1008.22 | 1003.85 | 1.143 | 0.907 | 0.739 | 0.615
m1 = 0.5 | 1018.46 | 1015.67 | 1012.03 | 1007.62 | 1.182 | 0.936 | 0.763 | 0.632
m1 = 0.6 | 1022.28 | 1019.43 | 1015.75 | 1011.32 | 1.221 | 0.967 | 0.787 | 0.651
m1 = 0.7 | 1026.03 | 1023.14 | 1019.41 | 1014.96 | 1.263 | 0.999 | 0.811 | 0.67

CC(C)[C@H](N)C(=O)O [L-valine] + O
Conditions | mass density, 293.15 K [kg/m3] | mass density, 303.15 K [kg/m3] | mass density, 313.15 K [kg/m3] | mass density, 323.15 K [kg/m3] | viscosity, 293.15 K [mPa·s] | viscosity, 303.15 K [mPa·s] | viscosity, 313.15 K [mPa·s] | viscosity, 323.15 K [mPa·s]
m1 = 0.1 | 1000.87 | 998.32 | 994.85 | 990.59 | 1.044 | 0.83 | 0.678 | 0.567
m1 = 0.2 | 1003.5 | 1000.9 | 997.4 | 993.09 | 1.088 | 0.864 | 0.704 | 0.587
m1 = 0.3 | 1006.05 | 1003.43 | 999.89 | 995.54 | 1.134 | 0.899 | 0.731 | 0.608
m1 = 0.4 | 1008.55 | 1005.9 | 1002.34 | 997.95 | 1.183 | 0.936 | 0.76 | 0.63

O [water] + CC(C)[C@H](N)C(=O)O
m2 = 0
Conditions | mass density [kg/m3] | viscosity [mPa·s]
293.15 K | – | 1.002
303.15 K | – | 0.798
313.15 K | – | 0.654
323.15 K | 988.02 | 0.547

O [water] + C[C@@H](O)[C@H](N)C(=O)O
m2 = 0
Conditions | mass density [kg/m3] | viscosity [mPa·s]
293.15 K | – | 1.002
303.15 K | – | 0.798
313.15 K | – | 0.654
323.15 K | 988.02 | 0.547

O [water] + C[C@H](N)C(=O)O
m2 = 0
Conditions | mass density [kg/m3] | viscosity [mPa·s]
293.15 K | – | 1.002
303.15 K | – | 0.798
313.15 K | – | 0.654
323.15 K | 988.02 | 0.547

O [water] + N=C(N)NCCC[C@H](N)C(=O)O
m2 = 0
Conditions | mass density [kg/m3] | viscosity [mPa·s]
293.15 K | – | 1.002
303.15 K | – | 0.798
313.15 K | – | 0.654
323.15 K | 988.02 | 0.547

O [water] + NCC(=O)O
m2 = 0
Conditions | mass density [kg/m3] | viscosity [mPa·s]
293.15 K | – | 1.002
303.15 K | – | 0.798
313.15 K | – | 0.654
323.15 K | 988.02 | 0.547

O [water] + OC[C@@H](O)[C@@H](O[C@H]1O[C@H](CO)[C@@H](O)[C@H](O)[C@H]1O)[C@H](O)[C@@H](O)CO
m2 = 0
Conditions | mass density [kg/m3] | viscosity [mPa·s]
293.15 K | – | 1.002
303.15 K | – | 0.798
313.15 K | – | 0.654
323.15 K | 988.02 | 0.547
